Laboratory results published in patent publication US6274333A (Sanofi-Synthelabo, priority 1997, dated 2001).
Where two headings read alike, the source gives them in different places. Values belong to the compound of their own block, whether it stands above or below them.

Legend:
[1] = target: T1, rNT-R2 receptor (Rattus norvegicus, UniProt Q63384); assay: displacement of ^125 I-neurotensin from rNT-R2 expressed in COS cells; assay type: binding
T1 construct: rNT-R2 receptor expressed in COS-3 cells after transfection of the cloned cDNA; expressed in transfected cells; vector pSVL-rNT-R2
T1 sequence (Q63384 1-416): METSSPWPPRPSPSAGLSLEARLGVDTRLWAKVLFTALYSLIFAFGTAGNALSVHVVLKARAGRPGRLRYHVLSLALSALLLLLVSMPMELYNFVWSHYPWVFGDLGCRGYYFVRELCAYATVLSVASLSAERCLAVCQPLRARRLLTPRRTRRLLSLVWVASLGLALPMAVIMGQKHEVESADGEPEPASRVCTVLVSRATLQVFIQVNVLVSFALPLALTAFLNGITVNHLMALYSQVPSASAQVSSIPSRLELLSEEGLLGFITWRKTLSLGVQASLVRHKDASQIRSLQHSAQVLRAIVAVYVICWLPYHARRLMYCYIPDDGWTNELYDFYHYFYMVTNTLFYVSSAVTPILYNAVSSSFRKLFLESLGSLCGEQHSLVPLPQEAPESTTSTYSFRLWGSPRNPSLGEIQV
Protocol: BSA (bovine serum albumin), PMSF (phenylmethylsulphonyl fluoride) and 1,10-phenanthroline are marketed by Sigma. […] Levocabastine was obtained from Janssen Pharmaceutica.
(§1) The pharmacological characterization was carried out using […] cells transfected with pSVL-rNT-R2 recombinant vector. Three days after transfection, the cell monolayers were washed twice with 50 mM Tris-HCl pH 7.5, 0.1% BSA, 0.1% NaN3, 1 mM 1,10-phenanthroline (binding buffer) before binding to the radioligand.
After incubation for one hour at room temperature, the medium was aspirated and the cell monolayers were washed twice with the incubation buffer. Finally, the cells were solubilized with 1 ml of 1N NaOH and the bound radioactivity was evaluated.

[2] = target: T2, hNT-R2 (Homo sapiens, UniProt O95665); assay: inositol phosphate (IP3) production in CHO-2076.62 (hNT-R2) line; assay type: cell-based
T2 sequence (O95665 whole entry A54V): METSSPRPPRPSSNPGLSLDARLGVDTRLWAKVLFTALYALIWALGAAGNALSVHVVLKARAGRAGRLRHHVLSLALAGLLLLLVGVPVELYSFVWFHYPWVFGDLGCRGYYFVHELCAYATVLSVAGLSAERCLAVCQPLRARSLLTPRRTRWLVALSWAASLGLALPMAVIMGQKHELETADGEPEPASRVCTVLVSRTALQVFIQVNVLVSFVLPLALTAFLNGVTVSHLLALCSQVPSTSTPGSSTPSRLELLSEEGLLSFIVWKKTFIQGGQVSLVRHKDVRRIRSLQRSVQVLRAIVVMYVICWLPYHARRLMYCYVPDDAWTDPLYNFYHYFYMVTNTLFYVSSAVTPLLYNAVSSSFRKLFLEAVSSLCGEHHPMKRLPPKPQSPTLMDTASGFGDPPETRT
From the text: The CHO-2076.62 (hNT-R2) line was used to study the signalization mechanisms involved.

[3] = target: T2, hNT-R2; assay: intracellular Ca^2+ concentration in CHO-2076.62 (hNT-R2) line; assay type: cell-based; conditions: same response in the absence of extracellular calcium
From the text: In principle, this increase in the concentration of intracellular calcium ions is due to the release of internal reservoirs and not to the influx of extracellular calcium since the same response was found in the absence of extracellular calcium.

[4] = test system: HT29 cells; conditions: antagonism of neurotensin effect in vitro, read-out: IC50, formation of IP1 in HT29 cells; cited from earlier work
[5] = test system: NT-1R; conditions: CHO cells transfected with NT-1R; cited from earlier work
[6] = test system: type-1 receptor; conditions: cited from earlier work
[7] = test system: hypothermia induced by NT; conditions: mice; cited from earlier work
[8] = test system: hypothermia induced by NT; conditions: rats; cited from earlier work
[9] = test system: analgesia induced by NT; conditions: mice; cited from earlier work
[10] = test system: analgesia induced by NT; conditions: rats; cited from earlier work
[11] = test system: release of acetylcholine in rat striatum; conditions: cited from earlier work
[12] = test system: rotation in mice; conditions: cited from earlier work
[13] = target: T1, rNT-R2 receptor; assay: saturation binding of ^125 I-neurotensin to rNT-R2 expressed in COS cells; conditions: Scatchard analysis
Protocol: BSA (bovine serum albumin), PMSF (phenylmethylsulphonyl fluoride) and 1,10-phenanthroline are marketed by Sigma. The selective, non-peptide antagonist SR 48692 was synthesized by Sanofi Recherche, France. Levocabastine was obtained from Janssen Pharmaceutica.
as §1
Saturation experiments were carried out in 1 ml of binding buffer containing ^125 I-neurotensin over a range from 0.05 to 14.5 nM. After incubation for one hour at room temperature, the medium was aspirated and the cell monolayers were washed twice with the incubation buffer. Finally, the cells were solubilized with 1 ml of 1N NaOH and the bound radioactivity was evaluated. The non-specific binding was defined as being the binding in the presence of a (500-fold) excess of unlabelled ligand and, under these conditions, was less than 1% of the total radioactivity.

[14] = test system: untransfected cells, or cells transfected with the DNA vector alone; assay: binding of radiolabelled neurotensin to untransfected or vector-transfected COS cells
[15] = target: T2, hNT-R2; assay: microphysiometry (Cytosensor) with CHO 2076.62 (hNT-R2) cells; assay type: cell-based
Protocol: The microphysiometry experiments were carried out with the Cytosensor Microphysiometer (Molecular Devices, Menlo Park, Calif.). Each chamber of the instrument containing 3×10^5 cells was perfused with DMEM medium (Sigma, St. Louis, Mo.) containing 40 mM NaCl at 37° C. The rate of acidification was measured every 60 seconds (flowrate […]). 15-second injections of agonists were carried out. For the inhibition experiments, cells were exposed to the antagonists for 30 minutes before being perfused with the agonist.

[16] = test system: cloned receptor; conditions: cited from earlier work
[17] = binding with the type-1 receptor
[18] = 0.2 nM ^125 I-neurotensin, rNT-R2 in COS cells, read-out: IC50 (apparent), competition with ^125 I-neurotensin

Compound: C[C@@H]1CN([C@H]2CC[C@](C#N)(c3ccc(F)cc3)CC2)CC[C@]1(C(=O)O)c1ccccc1 [levocabastine]
IC50 [1]: 10 nM

intracellular concentration of Ca^2+ response [3]: significant response
Compound: COc1cccc(OC)c1-c1cc(C(=O)NC2(C(=O)O)C3CC4CC(C3)CC2C4)nn1-c1ccc(C(=O)N(C)CCCN(C)C)cc1C(C)C (centres unmarked) [SR142948]
increase in IP3 [2]: slight and transient (20-second) increase

Compound: COc1cccc(OC)c1-c1cc(C(=O)NC2(C(=O)O)C3CC4CC(C3)CC2C4)nn1-c1ccc(C(=O)N(C)CCCN(C)C)cc1C(C)C.Cl (centres unmarked) [SR 142948 A, 2-{(5-(2,6-dimethoxyphenyl)-1-(4-(N-(3-dimethylamino-propyl)-N-methylcarbamoyl)-2-isopropylphenyl)-1H-pyrazole-3-carbonyl)amino}adamantane-2-carboxylic acid hydrochloride]
IC50 [4]: 3.9 nM | antagonism of neurotensin mobilization of intracellular calcium ions [5]: antagonizes | displacement of [^3 H]-SR 48692 [6, 17]: completely displaces | displacement of [^125 I]-neurotensin [6, 17]: completely displaces | affinity ([6]; type-1 receptor (Gully et al.)): of the order of a nanomole | effect on hypothermia induced by NT [7]: antagonizes | effect on hypothermia induced by NT [8]: antagonizes | effect on analgesia induced by NT [9]: antagonizes | effect on analgesia induced by NT [10]: antagonizes | antagonism of neurotensin effect: release of acetylcholine [11]: antagonizes | antagonism of neurotensin effect: rotation [12]: antagonizes

Compound: ^125 I-neurotensin: ^125 I-[Tyr^3 ]-labelled neurotensin marketed by NEN
binding capacity (Bmax) [13]: 180,000±3000 sites per cell | binding to untransfected cells or cells transfected with vector alone [14]: did not bind

Compound: neuromedin N: ligand related to neurotensin, used as competitor (IPYIL; Neuromedin N; UniProt P30990 144-148, looked up)
IC50 [1, 18]: 5.1 nM

IC50 [1, 18]: 22.5 nM | inhibition of the agonist effect of SR142948 ([15]; CHO 2076.62 (hNT-R2), SR48692 at doses at which there is no agonist effect): antagonized | relative effectiveness at inhibiting the effect of SR142948 ([15]; inhibition curves, SR48692 versus neurotensin): more effective than neurotensin | intracellular concentration of Ca^2+ response [3]: significant response
Compound: COc1cccc(OC)c1-c1cc(C(=O)NC2(C(=O)O)C3CC4CC(C3)CC2C4)nn1-c1ccnc2cc(Cl)ccc12 (centres unmarked) [SR 48692, {2-[(1-(7-chloro-4-quinolinyl)-5-(2,6-di-methoxyphenyl)pyrazol-3-yl)carbonylamino]tricyclo-(3.3.1.1.3.7)decane-2-carboxylic} acid]
inhibition of the binding of NT to the cloned receptor [16]: inhibits the binding of NT to the cloned receptor | effect on hypothermia induced by NT [7]: insensitive | effect on hypothermia induced by NT [8]: insensitive | effect on analgesia induced by NT [9]: insensitive | effect on analgesia induced by NT [10]: insensitive
